{
  "source": "patent US6037357A",
  "about": "“N-benzoyl-α-alkylated azatyrosines as anticancer agents” (Unitech Pharmaceuticals, Inc., priority 1999, dated 2000)",
  "key": {"[1]": {"test_system": "stomach cancer cell (SC-M1)", "test": "Cytotoxic assay by colorimetric MTT assay (growth inhibition), stomach cancer", "assay_type": "cell-based, human", "conditions": "for IC50: Homo sapiens, 72 h, SC-M1, 10000 cells per well, 3 days incubation, mean of 4 experiments", "procedure": "(§1) The in-vitro studies for evaluating these α-alkylatedderivatives of azatyrosine were performed and the general procedures are listed as follow:\n(§2) Human stomach cancer cell line (SC-M1), and human breast cancer cell line (BC-M1) sampled from inpatients at Tri-service General Hospital in Taipei (Taiwan) were cultured and used in the experiments. All cells from primary culture and subculture were grown in 10% RPMI 1640 supplemented with 100 U/mL penicillin G, 100 μg/mL amphotericin B, and 10% fetal calf serum (FCS) in a 5% CO2 incubator at 37° C.\n(§3) The cytotoxicity of these compounds against cultured cancer cells was determined by utilizing in-vitro MTT assay. L-azatyrosine and its α-alkylated derivatives were dissolved in milli-Q water at a concentration of 1 mg/mL and diluted with 10% FCS-RPMI to various concentrations, respectively. Single cell suspension (100 μL) and each compounds (100 μL) were added to 96-well flat-bottom microplate. 10% FCS-RPMI (100 μL) was used as a control group. After 3 days incubation at 37° C. in a 5% CO2 incubator, stock MTT (10 μL of 5 mg/mL for each 100 μL solution in well) solution was added to all wells. After additional 2 h incubation in a 5% CO2 incubator, The mixture was centrifuged (1000 rpm for 5 min) and the supernatant was carefully pipetted out. The residue was mixed well with DMSO (100 μL). The optical density of plates was recorded on a MRX Spectrophotometer (Dynatech, Guernsey, UK) at a wavelength of 550 nm.\n(§4) Fractional inhibition was calculated as [1-(optical density of sample/optical density of control)]. The IC50 values for each compound were determined as a parameter for cytotoxicity, which is the concentration of a test compound exerting 50% survival of cancer cells, compared to untreated controls. Each value is the mean of four experiments. A specific example of the in-vitro study is shown Example 8.\n(§5) A series of α-alkylated derivatives of L-azatyrosine were studied for their in-vitro effects according to the above procedures. The growth inhibition of L-azatyrosine and its derivatives on human cancer cell lines (BC-M1 and SC-M1) has been shown on Table 1."}, "[2]": {"test_system": "breast cancer cell (BC-M1)", "test": "Cytotoxic assay by colorimetric MTT assay (growth inhibition), breast cancer", "assay_type": "cell-based, human", "conditions": "for IC50: Homo sapiens, 72 h, BC-M1, 10000 cells per well, 3 days incubation, mean of 4 experiments", "procedure": "as §1, §2, §3, §4, §5"}, "[3]": {"test_system": "pappilomas induced by a chemical carcinogen", "conditions": "2 mg/mouse once every two days for 12 days; cited from earlier work"}, "[4]": {"test_system": "PC-3", "conditions": "incubation for 7 days; cited from earlier work"}, "[5]": {"test_system": "activated c-Ha-ras-transformed NIH3T3 cells", "conditions": "cited from earlier work"}, "[6]": {"test_system": "TSU-Prl", "conditions": "incubation for 7 days; cited from earlier work"}, "[7]": {"test_system": "cells possessing normal ras gene", "conditions": "cited from earlier work"}, "[8]": {"test_system": "7,12-dimethylbenz[a]anthracene or methylnitrosourea-induced carcinogenesis in mice", "conditions": "mice harboring a normal c-Ha-ras gene; cited from earlier work"}, "[9]": {"test_system": "DU-145", "conditions": "incubation for 7 days; cited from earlier work"}, "[10]": {"test_system": "human prostate cancer cells", "conditions": "cited from earlier work"}, "[11]": {"test_system": "anticancer activity", "conditions": "cited from earlier work"}, "[12]": {"test_system": "prostate tumorigenic growth", "conditions": "cited from earlier work"}},
  "note": "“Also recorded” adds a separate entry of the source.",
  "data": [
    {"compound": "CC(C)CC(Cc1ccc(O)cn1)(NC(=O)c1ccccc1)C(=O)O", "note": "(racemic) [Compound 8b, N-Benzoyl-α-isobutyl-DL-azatyrosine]", "values": [
      {"measurement": "IC50", "setting": "[1]", "result": 1200, "unit": "µM"},
      {"measurement": "IC50", "setting": "[2]", "result": 1000, "unit": "µM"}
    ]},
    {"compound": "CC(Cc1ccc(O)cn1)(NC(=O)c1ccccc1)C(=O)O", "note": "(racemic) [Compound 8a, N-Benzoyl-α-methyl-DL-azatyrosine]", "values": [
      {"measurement": "IC50", "setting": "[1]", "result": 800, "unit": "µM"},
      {"measurement": "IC50", "setting": "[2]", "result": 1300, "unit": "µM"}
    ]},
    {"compound": "CC(C)CC(Cc1ccc(O)cn1)(NC(=O)c1ccccc1)C(=O)N[C@@H](C)c1ccccc1", "note": "(mixture of isomers) [Compound 10b, N-Benzoyl-α-isobutyl-DL-azatyrosyl-(S)-1-phenylethylamide]", "values": [
      {"measurement": "IC50", "setting": "[1]", "result": 300, "unit": "µM"},
      {"measurement": "cytotoxicity / growth inhibition compared with L-azatyrosine (in words), SC-M1", "setting": "[1]", "result": "higher growth inhibition than that of L-azatyrosine"},
      {"measurement": "cytotoxicity / growth inhibition compared with L-azatyrosine (in words), BC-M1", "setting": "[2]", "result": "higher growth inhibition than that of L-azatyrosine"},
      {"measurement": "IC50", "setting": "[2]", "result": 300, "unit": "µM"}
    ]},
    {"compound": "CCOC(=O)C(Cc1ccccc1)(Cc1ccc(O)cn1)NC(=O)c1ccccc1", "note": "(racemic) [Compound 9c, Ethyl N-benzoyl-α-benzyl-DL-azatyrosinate]", "values": [
      {"measurement": "IC50", "setting": "[1]", "result": 1000, "unit": "µM"},
      {"measurement": "IC50", "setting": "[2]", "result": 900, "unit": "µM"}
    ]},
    {"compound": "N[C@@H](Cc1ccc(O)cn1)C(=O)O", "note": "[L-Azatyrosine, L-azatyrosine]", "values": [
      {"measurement": "IC50", "setting": "[1]", "result": 1600, "unit": "µM"},
      {"measurement": "block of pappilomas induced by a chemical carcinogen", "setting": "[3]", "result": "can block pappilomas"},
      {"measurement": "in-vitro growth inhibition, PC-3", "setting": "[4]", "result": "greater than 95%"},
      {"measurement": "reversion of activated c-Ha-ras-transformed NIH3T3 cells to the apparently normal phenotype", "setting": "[5]", "result": "induces permanent reversion"},
      {"measurement": "in-vitro growth inhibition, TSU-Prl", "setting": "[6]", "result": "greater than 95%"},
      {"measurement": "IC50", "setting": "[2]", "result": 2200, "unit": "µM"},
      {"measurement": "effect on the growth of cells possessing normal ras gene", "setting": "[7]", "result": "without significantly affecting the growth"},
      {"measurement": "inhibition of 7,12-dimethylbenz[a]anthracene or methylnitrosourea-induced carcinogenesis", "setting": "[8]", "result": "inhibits"},
      {"measurement": "in-vitro growth inhibition, DU-145", "setting": "[9]", "result": "greater than 95%"},
      {"measurement": "reversion efficiency on human prostate cancer cells", "setting": "[10]", "result": "high reversion efficiency"},
      {"measurement": "concentrations required for the anticancer activity", "setting": "[11]", "result": "1 to 2", "unit": "mM"},
      {"measurement": "inhibition of prostate tumorigenic growth", "setting": "[12]", "result": "inhibit prostate tumorigenic growth"}
    ]},
    {"compound": "CCOC(=O)C(Cc1ccc(O)cn1)(CC(C)C)NC(=O)c1ccccc1", "note": "(racemic) [Compound 9b, Ethyl N-benzoyl-α-isobutyl-DL-azatyrosinate]", "values": [
      {"measurement": "IC50", "setting": "[1]", "result": 600, "unit": "µM"},
      {"measurement": "IC50", "setting": "[2]", "result": 700, "unit": "µM"}
    ]},
    {"compound": "O=C(NC(Cc1ccccc1)(Cc1ccc(O)cn1)C(=O)O)c1ccccc1", "note": "(racemic) [Compound 8c, N-benzoyl-α-benzyl-DL-azatyrosine]", "values": [
      {"measurement": "IC50", "setting": "[1]", "result": 600, "unit": "µM"},
      {"measurement": "IC50", "setting": "[2]", "result": 600, "unit": "µM"}
    ]},
    {"compound": "C[C@H](NC(=O)C(Cc1ccccc1)(Cc1ccc(O)cn1)NC(=O)c1ccccc1)c1ccccc1", "note": "(mixture of isomers) [Compound 10c, N-Benzoyl-α-benzyl-DL-azatyrosyl-(S)-1-phenylethylamide]", "values": [
      {"measurement": "IC50", "setting": "[1]", "result": 80, "unit": "µM"},
      {"measurement": "cytotoxicity / growth inhibition compared with L-azatyrosine (in words), SC-M1", "setting": "[1]", "result": "higher growth inhibition than that of L-azatyrosine; also recorded: excellent cytotoxicity on SC-M1 compared with L-azatyrosine"},
      {"measurement": "cytotoxicity / growth inhibition compared with L-azatyrosine (in words), BC-M1", "setting": "[2]", "result": "higher growth inhibition than that of L-azatyrosine"},
      {"measurement": "IC50", "setting": "[2]", "result": 600, "unit": "µM"}
    ]}
  ]
}
